According to BigSolDB 2.1:

Cn1cc[nH]c1=S
solubility (mole fraction)
Details	278.15 K	283.15 K	288.15 K	293.15 K	298.15 K	303.15 K	308.15 K	313.15 K	318.15 K	323.15 K
in 1,4-dioxane	0.0435	0.0517	0.0616	0.0731	0.0874	0.102	0.119	0.141	0.164	0.187
in THF	0.0475	0.0542	0.0634	0.0733	0.0841	0.0972	0.112	0.13	0.148	0.169
in acetone	0.0425	0.0517	0.0623	0.0749	0.0889	0.107	0.124	0.147	0.167	0.193
in acetonitrile	0.016	0.0216	0.0267	0.0338	0.0416	0.0531	0.0668	0.0818	0.101	0.121
in ethanol	0.0275	0.0335	0.0417	0.0519	0.0645	0.0795	0.0968	0.117	0.139	0.167
in ethyl acetate	0.0159	0.018	0.0198	0.022	0.0246	0.0273	0.0306	0.0339	0.038	0.0428
in isobutanol	0.019	0.0233	0.0289	0.0365	0.0439	0.0542	0.0656	0.0809	0.0966	0.117
in isopropanol	0.0168	0.0225	0.029	0.0381	0.0478	0.0621	0.0788	0.0985	0.123	0.152
in methanol	0.06	0.0711	0.084	0.0996	0.125	0.148	0.177	0.21	0.244	0.283
in methyl acetate	0.0288	0.0337	0.0391	0.0452	0.0521	0.0593	0.07	0.0817	0.0936	0.107
in n-butanol	0.0194	0.026	0.0328	0.0414	0.0528	0.0665	0.0823	0.102	0.124	0.153
in n-propanol	0.0261	0.032	0.0385	0.0468	0.0558	0.0663	0.0786	0.0931	0.111	0.13
